In PMC13576449, “Small-Molecule Activators of PRMT1: Discovery, SAR Analyses, and Proapoptotic Effects in Pancreatic Cancer Cells” (Journal of Medicinal Chemistry, 2026):

Key:
Type in all cases: biochemical
[1] = target: T1, FLAG-tagged PRMT1 (Rattus norvegicus, UniProt Q63009); assay: Fluorescence-based in vitro PRMT assay (F-PRMT assay), PRMT1; settings: for Experimental result (PRMT1): vs solvent control = 100%
T1 construct: Full-length FLAG-tagged PRMT protein; made in house; host or cells: Sf9 insect cells (baculovirus)

[2] = target: T2, FLAG-tagged PRMT6 (Homo sapiens, UniProt Q96LA8); assay: Fluorescence-based in vitro PRMT assay (F-PRMT assay), PRMT6; settings: for Experimental result (PRMT6): vs solvent control = 100%
T2 construct: The complete ORFs of human PRMT3 and PRMT6 were inserted; made in house; host or cells: Sf9 insect cells (baculovirus)
How it was run: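 Baculovirus/Sf9-expressed FLAG-PRMTs (human PRMT3, PRMT6; mouse PRMT4), anti-FLAG purified and used bead-bound, methylated Bz-Arg-AMC with SAM for 2 h at 37 °C, 1,000 rpm. Technical triplicates; no-SAM negative controls.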

[3] = target: T3, FLAG-tagged PRMT4 (Mus musculus, UniProt Q9WVG6); assay: Fluorescence-based in vitro PRMT assay (F-PRMT assay), PRMT4; settings: vs solvent control = 100%
T3 construct: Full-length FLAG-tagged PRMT protein; made in house; host or cells: Sf9 insect cells (baculovirus)
T3 sequence (Q9WVG6 1-608): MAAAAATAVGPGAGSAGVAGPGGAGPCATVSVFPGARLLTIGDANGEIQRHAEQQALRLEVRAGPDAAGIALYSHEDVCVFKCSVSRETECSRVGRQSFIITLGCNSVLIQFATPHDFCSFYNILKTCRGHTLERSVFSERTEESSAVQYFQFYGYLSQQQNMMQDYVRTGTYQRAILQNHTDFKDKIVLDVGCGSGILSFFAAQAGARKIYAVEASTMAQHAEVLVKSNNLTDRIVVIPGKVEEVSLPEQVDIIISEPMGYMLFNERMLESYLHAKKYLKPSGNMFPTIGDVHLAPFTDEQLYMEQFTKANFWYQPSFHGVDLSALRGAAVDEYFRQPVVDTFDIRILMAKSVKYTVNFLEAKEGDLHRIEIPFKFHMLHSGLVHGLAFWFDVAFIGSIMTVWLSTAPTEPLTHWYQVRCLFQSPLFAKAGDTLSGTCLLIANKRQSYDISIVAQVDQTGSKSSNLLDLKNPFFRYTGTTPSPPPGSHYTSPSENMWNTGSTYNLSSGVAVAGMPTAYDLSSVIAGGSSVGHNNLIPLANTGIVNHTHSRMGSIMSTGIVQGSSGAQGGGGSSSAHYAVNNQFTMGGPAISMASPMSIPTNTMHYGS
From the text: (§1) To evaluate the effects of the selected candidate molecules on the catalytic activity of type I enzymes, we employed a quantitative fluorescence-based in vitro PRMT activity (F-PRMT) assay using recombinant FLAG-tagged PRMT proteins expressed and affinity-purified from baculovirus-infected Sf9 cells (SI Figure S1, SI Figure S2A).
(§2) Human cell lines (PaTu8988T, PANC-1) were obtained from ATCC (American Type Culture Collection) and cultured in DMEM supplemented with 10% fetal calf serum (FCS, Gibco/BRL), 1% penicillin/streptomycin at 37 °C and 5% CO2. […] For PRMT1 inhibition, cells were treated with type I PRMT inhibitor MS023 hydrochloride (Biomol). For induction of genotoxic stress, cells were treated with gemcitabine (LC Laboratories). […] The following plasmids were used: pFASTBAC-FLAG-rat PRMT1, pFASTBAC-FLAG-mouse PRMT4, and pGEX-GAR. The complete ORFs of human PRMT3 and PRMT6 were inserted into the pFASTBAC HT-3xFLAG B vector via BamHI/HindIII and BamHI/XhoI sites, respectively.
(§3) For PRMT protein expression in insect cells, recombinant baculovirus (bacmid) was generated using the Bac-to-Bac baculovirus system (Invitrogen). Sf9 cells were transfected with bacmid DNA using X-tremeGENE HP DNA transfection reagent (Sigma-Aldrich) according to the manufacturer's instructions. After 3–5 days, supernatants were collected, filtered, and used to infect Sf9 cells to amplify the virus. After 2 rounds of virus amplification and estimation of the final P3 virus titer, the P3 virus (2–5 μL/10^6 cells) was applied for large-scale infection of 200 × 10^6 Sf9 cells in suspension culture at a density of 1 × 10^6 cells/mL. Cells were harvested 5–6 days post-infection by centrifugation at 500 g for 5 min at room temperature. Protein purification from baculovirus-infected Sf9 cells was performed as previously described. , Cells were lysed in BC buffer (20 mM HEPES pH 7.9, 250 mM NaCl, 10% (v/v) glycerin, 0.4 mM EDTA, 1 mM DTT) containing a protease inhibitor cocktail (Roche) by 3 freeze-thaw cycles. After centrifugation at 11,000 rpm (Sorval SS34 rotor) and 4 °C for 1 h, the supernatant (whole cell protein extract) was incubated with anti-FLAG M2 Affinity Gel (Cytiva) at 4 °C and under agitation for 4 h. Subsequently, beads were washed in BC buffer containing various NaCl concentrations (once in BC with 1 M NaCl, twice in BC with 500 mM NaCl, twice in BC with 250 mM NaCl and twice in BC with 100 mM NaCl). FLAG-tagged proteins were either maintained bead-bound as a 50% (v/v) slurry in BC buffer with 100 mM NaCl and stored at −80 °C or were eluted in the appropriate elution buffer (depending on the subsequent assay) containing 0.25 mg/mL 3xFLAG peptides (Sigma-Aldrich) at 4 °C for 30–45 min. To remove the FLAG-peptides from the eluate, dialysis was performed in elution buffer containing 10% (v/v) glycerol at 4 °C for 4–6 h using Slide-A-Lyzer Dialysis Devices (Thermo Fisher Scientific) according to the manufacturer’s recommendations.
(§4) In the first step, the fluorogenic substrate Nα-Benzoyl-L-arginine-7-amido-4-methylcoumarin (Bz-Arg-AMC, Sigma-Aldrich) undergoes methylation by PRMTs upon the addition of the cofactor SAM. In the second reaction step, trypsin cleaves the nonmethylated substrate, leading to the generation of the 7-amino-4-methylcoumarin product, which can be quantified by subsequent fluorescence measurement (excitation: 355 nm, emission: 460 nm). The first reaction was conducted with bead-bound PRMTs at a total volume of 100 μL. Each condition was performed as a technical triplicate to determine the mean and the standard deviation. […] For the negative controls, SAM was substituted with assay buffer. The incubation was continued at 37 °C and under agitation (1,000 rpm) for a duration of 2 h.

[4] = target: T4, FLAG-tagged PRMT3 (Homo sapiens, UniProt O60678); assay: Fluorescence-based in vitro PRMT assay (F-PRMT assay), PRMT3; settings: for Experimental result (PRMT3): vs solvent control = 100%
T4 construct: The complete ORFs of human PRMT3 and PRMT6 were inserted; made in house; host or cells: Sf9 insect cells (baculovirus)
From the text: as §1, §2, §3, §4

[5] = Table 1, 100 μM compound, 2 μM PRMT, n = 3, racemates used
[6] = Table 1, 100 μM compound, mean % difference of activity vs solvent control (100%), - inhibition, + activation, n = 3
[7] = Table S3, 100 µM compound, mean % difference vs solvent control (100%), n≥3

T2 sequence (Q96LA8 whole entry): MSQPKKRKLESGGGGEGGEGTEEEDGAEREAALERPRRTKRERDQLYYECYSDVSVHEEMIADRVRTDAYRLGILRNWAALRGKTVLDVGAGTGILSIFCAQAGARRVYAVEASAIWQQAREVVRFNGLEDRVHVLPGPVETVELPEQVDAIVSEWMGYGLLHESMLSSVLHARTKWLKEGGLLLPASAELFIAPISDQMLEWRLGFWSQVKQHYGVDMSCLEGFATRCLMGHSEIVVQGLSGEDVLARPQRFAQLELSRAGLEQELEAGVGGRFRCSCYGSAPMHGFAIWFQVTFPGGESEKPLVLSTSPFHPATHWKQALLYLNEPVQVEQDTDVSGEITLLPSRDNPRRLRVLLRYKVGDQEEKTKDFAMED
T4 sequence (O60678 whole entry): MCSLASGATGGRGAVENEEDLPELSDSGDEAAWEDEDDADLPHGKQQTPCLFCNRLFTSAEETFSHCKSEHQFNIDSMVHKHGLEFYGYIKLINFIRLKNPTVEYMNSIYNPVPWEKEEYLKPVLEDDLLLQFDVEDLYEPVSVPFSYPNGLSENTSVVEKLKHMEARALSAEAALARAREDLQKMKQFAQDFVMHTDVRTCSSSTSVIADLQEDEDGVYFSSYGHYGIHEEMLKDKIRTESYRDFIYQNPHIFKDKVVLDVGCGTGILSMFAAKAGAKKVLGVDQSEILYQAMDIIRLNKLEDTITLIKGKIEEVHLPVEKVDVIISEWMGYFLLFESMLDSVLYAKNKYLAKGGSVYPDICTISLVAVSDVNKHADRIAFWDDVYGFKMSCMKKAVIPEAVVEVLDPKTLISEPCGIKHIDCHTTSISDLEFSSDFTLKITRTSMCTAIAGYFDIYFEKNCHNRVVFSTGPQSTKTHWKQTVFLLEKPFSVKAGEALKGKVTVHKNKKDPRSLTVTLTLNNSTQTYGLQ
T1 sequence (Q63009 whole entry): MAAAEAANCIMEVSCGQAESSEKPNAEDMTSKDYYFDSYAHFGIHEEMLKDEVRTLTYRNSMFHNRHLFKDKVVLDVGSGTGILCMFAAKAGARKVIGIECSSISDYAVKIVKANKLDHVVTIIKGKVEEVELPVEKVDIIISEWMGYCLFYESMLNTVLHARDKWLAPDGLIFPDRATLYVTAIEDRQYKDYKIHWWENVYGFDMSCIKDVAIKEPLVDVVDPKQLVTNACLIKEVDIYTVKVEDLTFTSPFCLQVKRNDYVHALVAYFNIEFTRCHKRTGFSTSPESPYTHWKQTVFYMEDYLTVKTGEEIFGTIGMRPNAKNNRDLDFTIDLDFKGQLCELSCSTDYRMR

| Experimental result (PRMT6) [2, 5] | Structure (SMILES) | Experimental result (PRMT1) [1, 5] | Experimental result (PRMT4) [3, 5] | Experimental result (PRMT3) [4, 5] | Experimental result (PRMT6) ([2]; Table S3, 100 µM compound, n≥3) | Experimental result (PRMT4) ([3]; Table S3, 100 µM compound, n≥3) | other results |
| --- | --- | --- | --- | --- | --- | --- | --- |
| PRMT6 i | CNCc1cn(CC2CCN(c3ccc(C(C)=O)cn3)CC2)nn1 [Compound K002JS003] | PRMT1 n.e. (Compounds, which did not significantly affect the catalytic activity (less than ±6% change or not significant p-value), are marked with [drawing 8] (no effect)) | PRMT4 n.e. (Compounds, which did not significantly affect the catalytic activity (less than ±6% change or not significant p-value), are marked with [drawing 8] (no effect)) | PRMT3 n.e. (Compounds, which did not significantly affect the catalytic activity (less than ±6% change or not significant p-value), are marked with [drawing 8] (no effect)) |  |  |  |
|  | O=C1NC(=O)c2ccccc2/C1=C/NCc1ccccc1 [TR-03, (Z)-4-[(Benzylamino)methylene]isoquinoline-1,3(2H,4H)-dione] |  |  |  | n.e. (did not significantly affect the catalytic activity (less than ±6% change or not significant p-value), are marked with n.e. (no effect)) | n.e. (did not significantly affect the catalytic activity (less than ±6% change or not significant p-value), are marked with n.e. (no effect)) | effect on PRMT1 activity (in words) ([1]; 100 μM compound): slight inhibitory effect; Experimental result (PRMT3) ([4]; Table S3, 100 µM compound, n≥3): n.e. (did not significantly affect the catalytic activity (less than ±6% change or not significant p-value), are marked with n.e. (no effect)) |
| PRMT6 i | O=C(CC1COCCN1)N1CCC(N2CCc3ccccc3C2)CC1 (centres unmarked) [Compound K002JS014] | PRMT1 n.e. (Compounds, which did not significantly affect the catalytic activity (less than ±6% change or not significant p-value), are marked with [drawing 8] (no effect)) | PRMT4 n.e. (Compounds, which did not significantly affect the catalytic activity (less than ±6% change or not significant p-value), are marked with [drawing 8] (no effect)) | PRMT3 n.e. (Compounds, which did not significantly affect the catalytic activity (less than ±6% change or not significant p-value), are marked with [drawing 8] (no effect)) |  |  | Efficacy ±Δ% (PRMT6) [2, 6]: -8% |
| PRMT6 i | N=C(N)NCCSCc1cccc2ccccc12 [Compound K001JS010] | PRMT1 i | PRMT4 n.e. (Compounds, which did not significantly affect the catalytic activity (less than ±6% change or not significant p-value), are marked with [drawing 8] (no effect)) | PRMT3 n.e. (Compounds, which did not significantly affect the catalytic activity (less than ±6% change or not significant p-value), are marked with [drawing 8] (no effect)) |  |  | Efficacy ±Δ% (PRMT1) [1, 6]: -20% |
|  | CN(C)Cc1cccc(N/C=C2\C(=O)NC(=O)c3ccccc32)c1 [TR-010] |  |  |  | n.e. (did not significantly affect the catalytic activity (less than ±6% change or not significant p-value), are marked with n.e. (no effect)) | n.e. (did not significantly affect the catalytic activity (less than ±6% change or not significant p-value), are marked with n.e. (no effect)) | activation at 100 µM ([1]; 100 μM compound, increase over solvent-treated activity, read-out: enhancement (increase) of PRMT1 enzymatic activity): ≥ 60%; Efficacy ±∆% (PRMT1) [1, 7]: +75%; Efficacy ±∆% (PRMT3) [4, 7]: +45% |
|  | O=C1NC(=O)c2ccccc2/C1=C/Nc1ccccc1 [TR-014, (Z)-4-[(Phenylamino)methylene]isoquinoline-1,3(2H,4H)-dione] |  |  |  | n.e. (did not significantly affect the catalytic activity (less than ±6% change or not significant p-value), are marked with n.e. (no effect)) | n.e. (did not significantly affect the catalytic activity (less than ±6% change or not significant p-value), are marked with n.e. (no effect)) | effect on PRMT1 activity (in words) ([1]; 100 μM compound): no significant effect; Experimental result (PRMT1) ([1]; Table S3, 100 µM compound, n≥3): n.e. (did not significantly affect the catalytic activity (less than ±6% change or not significant p-value), are marked with n.e. (no effect)); Experimental result (PRMT3) ([4]; Table S3, 100 µM compound, n≥3): n.e. (did not significantly affect the catalytic activity (less than ±6% change or not significant p-value), are marked with n.e. (no effect)) |

| Structure (SMILES) | Experimental result (PRMT6) [2, 5] | Experimental result (PRMT1) [1, 5] | Experimental result (PRMT4) [3, 5] | Experimental result (PRMT3) [4, 5] | Experimental result (PRMT6) ([2]; Table S3, 100 µM compound, n≥3) | Experimental result (PRMT4) ([3]; Table S3, 100 µM compound, n≥3) | other results |
| --- | --- | --- | --- | --- | --- | --- | --- |
| CNC[C@@H](O)COc1cccc(OC)c1 (racemic) [Compound K001JS003] | PRMT6 n.e. (Compounds, which did not significantly affect the catalytic activity (less than ±6% change or not significant p-value), are marked with [drawing 8] (no effect)) | PRMT1 n.e. (Compounds, which did not significantly affect the catalytic activity (less than ±6% change or not significant p-value), are marked with [drawing 8] (no effect)) | PRMT4 i | PRMT3 n.e. (Compounds, which did not significantly affect the catalytic activity (less than ±6% change or not significant p-value), are marked with [drawing 8] (no effect)) |  |  |  |
